Results: the supplement of paper PMC8882468

Key:
Experiment in all cases: CTG-3D luminescence at 96 h relative to day-0 seeding control (ratio to day 0); higher = more growth / less cytotoxicity; PDxO 3D drug screen, 96 h, CTG-3D normalised to day-0 seeding control.
[1] = test system: HCI-024 (organoid from a breast cancer xenograft)
[2] = test system: HCI-003.E2 (organoid from an ER-positive breast cancer xenograft)
[3] = test system: HCI-019 (organoid from a triple-negative breast cancer xenograft)
[4] = test system: HCI-027 (organoid from a triple-negative breast cancer xenograft)
[5] = test system: HCI-023 (organoid from a triple-negative breast cancer xenograft)
[6] = test system: HCI-012 (organoid from a breast cancer xenograft)
[7] = test system: MDA-MB-231

CC(=O)O[C@H]1C(=O)[C@@]2(C)[C@H]([C@H](OC(=O)c3ccccc3)[C@]3(O)C[C@H](OC(=O)[C@H](O)[C@@H](NC(=O)c4ccccc4)c4ccccc4)C(C)=C1C3(C)C)[C@]1(OC(C)=O)CO[C@@H]1C[C@@H]2O [paclitaxel]
CTG-3D luminescence at 96 h
Conditions | 12.5 pM | 0.00025 µM | 0.005 µM | 0.1 µM | 1 µM | 10 µM | 100 µM | 625 fM
[1], days in culture: 105 | 1.8 | 1.38 | 1.01 | 1.4 | 1.57 | 1.68 | 1.11 | 1.85
[1], days in culture: 122 | 2.07 | 2.67 | 1.5 | 1.34 | 1.62 | 2.3 | 1.13 | 2.79
[1], days in culture: 163 | 1.62 | 1.72 | 1.29 | 1.68 | 1.65 | 2.37 | 1.26 | 1.56
[3], days in culture: 110 | 1.88 | 1.91 | 0.816 | 0.627 | 0.47 | 0.827 | 0.987 | 2.39
[3], days in culture: 131 | 2.01 | 2.78 | 0.75 | 0.609 | 0.644 | 1.48 | 1.29 | 3.26
[3], days in culture: 152 | 1.25 | 1.28 | 0.778 | 0.964 | 0.598 | 1.01 | 1.18 | 1.52
[4], days in culture: 176 | 2.38 | 1.31 | 0.504 | 0.265 | 0.283 | 0.392 | 0.34 | 2.59
[4], days in culture: 194 | 1.95 | 1.6 | 0.751 | 0.185 | 0.242 | 0.511 | 0.427 | 1.65
[4], days in culture: 201 | 2.25 | 2.16 | 0.808 | 0.215 | 0.284 | 0.563 | 0.342 | 2.03
[5], days in culture: 111 | 1.34 | 1.27 | 0.476 | 0.484 | 0.433 | 0.474 | 0.492 | 1.58
[5], days in culture: 128 | 1.36 | 1.38 | 0.502 | 0.609 | 0.483 | 0.786 | 0.605 | 1.41
[6], days in culture: 143 | 1.61 | 1.85 | 0.96 | 0.518 | 0.54 | 0.829 | 0.769 | 1.71
[6], days in culture: 162 | 2.5 | 2.34 | 1.11 | 0.633 | 0.571 | 1.14 | 1.16 | 2.67
[6], days in culture: 201 | 1.12 | 0.271 | 0.477 | 0.241 | 0.609 | 0.237 | 1.01 | 0.564

CTG-3D luminescence at 96 h
Conditions | 12.5 pM | 0.00025 µM | 0.005 µM | 0.1 µM | 1 µM | 10 µM | 100 µM | 625 fM
[2] | 0.723 | 0.764 | 0.601 | 0.625 | 0.634 | 0.787 | 0.992 | 0.813
[7] | 3.73 | 3.45 | 2.71 | 2.03 | 2 | 2.42 | 1.09 | 3.85

Cc1nc(-c2cn3c(n2)-c2ccc(-c4cnn(C(C)(C)C(N)=O)c4)cc2OCC3)n(C(C)C)n1 [taselisib]
CTG-3D luminescence at 96 h
Conditions | 12.5 pM | 0.00025 µM | 0.005 µM | 0.1 µM | 1 µM | 10 µM | 100 µM | 625 fM
[1], days in culture: 105 | 1.47 | 1.44 | 1.54 | 1.77 | 1.34 | 0.981 | 0.403 | 1.9
[1], days in culture: 122 | 2.21 | 2.49 | 1.79 | 1.88 | 1.6 | 1.81 | 0.258 | 2.63
[1], days in culture: 163 | 1.36 | 2.13 | 1.7 | 2.36 | 2.06 | 1.62 | 0.316 | 2
[3], days in culture: 110 | 1.23 | 1.32 | 1.4 | 1.45 | 0.521 | 0.496 | 0.105 | 2.64
[3], days in culture: 131 | 2.82 | 3.38 | 3.03 | 1.62 | 1.23 | 0.571 | 0.133 | 4.04
[3], days in culture: 152 | 3.26 | 2.42 | 2.02 | 1.86 | 1.08 | 0.381 | 0.116 | 2.51
[4], days in culture: 176 | 1.91 | 1.52 | 2.2 | 1.11 | 1.31 | 0.095 | 0.0289 | 1.82
[4], days in culture: 194 | 1.73 | 1.53 | 1.35 | 1.11 | 1.6 | 0.208 | 0.00956 | 1.77
[4], days in culture: 201 | 2.55 | 2.73 | 2.59 | 1.88 | 1.72 | 0.173 | 0.031 | 2.81
[5], days in culture: 111 | 1.53 | 1.41 | 1.4 | 0.966 | 0.707 | 0.842 | 0.0187 | 1.35
[5], days in culture: 128 | 1.9392 | 1.52 | 1.88 | 1.68 | 1.2 | 1.18 | 0.33 | 1.86
[6], days in culture: 143 | 2.1 | 2.32 | 2.04 | 1.89 | 1.21 | 0.59 | 0.046 | 1.82
[6], days in culture: 162 | 2.56 | 2.08 | 1.72 | 2.19 | 1.1 | 0.703 | 0.0208 | 2.93
[6], days in culture: 201 | 2.64 | 2 | 1.44 | 1.62 | 1.56 | 0.385 | 0.0205 | 1.75

CTG-3D luminescence at 96 h
Conditions | 12.5 pM | 0.00025 µM | 0.005 µM | 0.1 µM | 1 µM | 10 µM | 100 µM | 625 fM
[2] | 2.19 | 2.28 | 1.77 | 0.633 | 0.183 | 0.0364 | 0.0189 | 2.14
[7] | 4.54 | 4.45 | 4.53 | 4.29 | 3.9 | 2.97 | 1.22 | 4.58

NC(=O)Nc1cc(-c2cccc(F)c2)sc1C(=O)N[C@H]1CCCNC1 [AZD7762]
CTG-3D luminescence at 96 h
Conditions | 12.5 pM | 0.00025 µM | 0.005 µM | 0.1 µM | 1 µM | 10 µM | 100 µM | 625 fM
[1], days in culture: 105 | 1.28 | 1.48 | 1.42 | 0.635 | 0.236 | 0.228 | 0.00249 | 1.9
[1], days in culture: 122 | 1.65 | 2.38 | 1.93 | 0.853 | 0.308 | 0.273 | 0.00352 | 2.89
[1], days in culture: 163 | 1.95 | 1.96 | 2.02 | 1.27 | 0.309 | 0.267 | 0.00535 | 2.34
[3], days in culture: 110 | 2.48 | 1.62 | 1.33 | 1.06 | 0.333 | 0.13 | -0.000246 | 2.15
[3], days in culture: 131 | 2.56 | 4.24 | 2.81 | 2.99 | 0.541 | 0.193 | 0.00562 | 4.04
[3], days in culture: 152 | 1.82 | 2.74 | 2.11 | 1.11 | 0.437 | 0.149 | 0.00479 | 3.06
[4], days in culture: 176 | 1.95 | 1.34 | 2.55 | 0.208 | 0.0981 | 0.0356 | -0.00164 | 2.05
[4], days in culture: 194 | 1.41 | 1.22 | 1.34 | 0.159 | 0.0911 | 0.0685 | -0.00154 | 1.61
[4], days in culture: 201 | 1.43 | 2.16 | 2.35 | 0.166 | 0.0767 | 0.078 | -1.51e-05 | 1.6
[5], days in culture: 111 | 1.36 | 1.49 | 1.15 | 0.765 | 0.201 | 0.0705 | -9.95e-05 | 1.52
[5], days in culture: 128 | 1.552 | 1.6 | 1.32 | 0.581 | 0.161 | 0.133 | 0.000895 | 1.67
[6], days in culture: 143 | 2.11 | 2.03 | 2.04 | 2.67 | 1.75 | 0.0896 | 0.000673 | 1.69
[6], days in culture: 162 | 2.58 | 2.41 | 1.89 | 2.83 | 1.99 | 0.16 | -5.12e-05 | 3.15
[6], days in culture: 201 | 2.51 | 2.18 | 1.69 | 1.39 | 2.14 | 0.141 | 0.00358 | 1.9

CTG-3D luminescence at 96 h
Conditions | 12.5 pM | 0.00025 µM | 0.005 µM | 0.1 µM | 1 µM | 10 µM | 100 µM | 625 fM
[2] | 2.21 | 2.59 | 1.96 | 1.78 | 1.12 | 0.769 | 0.0016 | 2.21
[7] | 4.48 | 4.32 | 4.52 | 3.96 | 1.4 | 0.628 | 0.0187 | 4.49
